In PMC8746441, “Design, Synthesis and Preclinical Assessment of ^99mTc-iFAP for In Vivo Fibroblast Activation Protein (FAP) Imaging” (Molecules, 2022):

Key:
[1] = test system: healthy laboratory Balb-C mice; test: Adverse effects of the cold ligand; format: in vivo; settings: dose of 40 mg/kg
[2] = test system: mice with induced Hep-G2 tumors; test: Biodistribution and biokinetic models in tumor-bearing mice; format: in vivo; settings: for Biodistribution, Blood / Biodistribution, Bone / Biodistribution, Heart / Biodistribution, Tumor / Biodistribution, Intestine / Biodistribution, Kidneys / Biodistribution, Liver / Biodistribution, Lung / Biodistribution, Muscle (left thigh) / Biodistribution, Pancreas / Biodistribution, Spleen / Biodistribution, Stomach: i.v.
Description: The biodistribution studies in Balb-c male mice were carried out in agreement with Official Mexican Norm 062-ZOO-1999. Hep-G2 tumors were induced in mice (n = 15) by subcutaneous injection (right thigh; positive control) of 1 × 10^6 cells suspended in 0.2 mL of phosphate-buffered saline. Killed Klebsiella pneumoniae bacteria (heated for 2 h at […] and verified for absence of growth after culturing), aseptically suspended in 0.2 mL of PBS (1 × 10^6 bacteria), were subcutaneously administered into the left thigh of mice in order to induce inflammation (negative control). After the tumor was visible, ^99mTc-iFAP (50 µL, 18 MBq, 7 nmol of iFAP) was administered intravenously into the tail of each mouse. Three mice were selected for micro-SPECT/CT imaging, whereas the rest were sacrificed to be used in the biodistribution study. The times of evaluation were 15 min, 30 min, 2 h and 24 h. After the mice were sacrificed, the blood and main organs were removed, weighted and their radioactivity measured using a […] detector, in order to calculate the percentage of the injected dose per gram of tissue (%ID/g) by using an initial standard volume (100% of the initial injected activity). Biokinetic models of the four main target tissues/organs (blood, tumor, liver and kidneys) were obtained by fitting ^99mTc-iFAP time-activity curves to functions with two or three exponential terms Equation (2):(2) A(t)=Ae^−at+Be^−bt+Ce^−ct

[3] = Human serum stability and protein binding (size-exclusion radio-HPLC); format: in vitro ADME
Description: The ^99mTc-iFAP (37 MBq, 100 µL, 14 nmol) was incubated at 37 °C with 500 µL of human serum (IST-909c certified human serum sample, Sigma-Aldrich) and diluted in 0.5 mL of a 0.9% NaCl solution. Twenty microliters of the mixture were sampled at 30 min, 3 and 24 h for size-exclusion radio-HPLC analysis using a ProteinPak 300SW Waters column and 0.01M PBS as the mobile phase (1 mL/min). The percentage of recovery (quantification of the radioactivity recovered from the HPLC column) was determined by injecting 20 µL of the ^99mTc-iFAP sample into the HPLC system and 20 µL into a 50 mL volumetric flask, which was filled with 0.01 M PBS (flask 1). The column was eluted with 0.01 M PBS for 50 min (1 mL/min) and the effluent was collected in a 50 mL volumetric flask (flask 2). Aliquots of 1 mL from both flask 1 and flask 2 were measured on an HPGe detector (ORTEC). The percentage of recovery was calculated by dividing the counts in flask 2 by the counts in flask 1 then multiplied by 100.

[4] = test system: nude mice with induced Hep-G2 lesions; test: Micro-SPECT/CT imaging and tumor SUV; settings: for tumor SUVmax, the mouse shown in Figure 7: one nude mouse; for tumor SUVmax, the mouse shown in Figure 7 / tumor SUVmax: right thigh; for tumor SUVmax: Hep-G2 tumor
Description: Hep-G2 tumors were induced in mice (n = 15) by subcutaneous injection (right thigh; positive control) of 1 × 10^6 cells suspended in 0.2 mL of phosphate-buffered saline. Killed Klebsiella pneumoniae bacteria (heated for 2 h at 1000 °C and verified for absence of growth after culturing), aseptically suspended in 0.2 mL of PBS (1 × 10^6 bacteria), were subcutaneously administered into the left thigh of mice in order to induce inflammation (negative control). After the tumor was visible, ^99mTc-iFAP (50 µL, 18 MBq, 7 nmol of iFAP) was administered intravenously into the tail of each mouse. Three mice were selected for micro-SPECT/CT imaging, whereas the rest were sacrificed to be used in the biodistribution study. […] After the mice were sacrificed, the blood and main organs were removed, weighted and their radioactivity measured using a Na(Tl) detector, in order to calculate the percentage of the injected dose per gram of tissue (%ID/g) by using an initial standard volume (100% of the initial injected activity). Biokinetic models of the four main target tissues/organs (blood, tumor, liver and kidneys) were obtained by fitting ^99mTc-iFAP time-activity curves to functions with two or three exponential terms Equation (2):(2) A(t)=Ae^−at+Be^−bt+Ce^−ct

[5] = test system: N30 (primary human stromal endometrial cells, FAP positive); test: Cellular uptake and internalization; format: cell-based; settings: 1 h, 37 °C
Description: The ^99mTc-iFAP uptake and internalization by N30 (FAP +) and fibroblast (FAP −) cells were determined by using 4 × 10^5 cells/500 µL of PBS in test tubes (n = 6). Both cells lines were incubated for 1 h at 37 °C with 10 µL of ^99mTc-iFAP (37 kBq, 0.4 nmol iFAP). After incubation, three washes with 500 µL of PBS were performed by centrifugation (700 g/5 min). By using a crystal scintillation (NaI(Tl)) well-type detector (MNL Inc., Littleton, CO, USA), the radioactivity in the cell pellet was evaluated. A standard volume with the initial activity was used to represent 100%, and the cell uptake activity was assessed with regard to this value. For the evaluation of internalization, the cell pellets were treated at 37 °C for 5 min with 500 µL of an acid glycine solution (0.1 M glycine, pH adjusted to 2.8 with HCl), and centrifuged (700 g/5 min). The cell pellet was incubated with 1 M NaOH for 5 min and centrifuged (700 g/5 min). The radioactivity of the supernatant was calculated as the percentage of internalization with regard to the initial activity of the standard volume as mentioned above.

[6] = test system: tumor microenvironment of different types of cancer; test: Preliminary clinical SPECT/CT imaging studies; format: in vivo; settings: preliminary clinical studies in progress, breast, lung, colorectal, gliomas, cervical cancer
[7] = Radiochemical stability of the radiopharmaceutical after labeling (radio-HPLC/ITLC-SG); format: physicochemical; settings: 24 h after labeling
Description: For radiolabeling, the lyophilized formulation was reconstituted with 1 mL of a 0.2 M phosphate buffer and 1 mL of ^99mTcO4Na (740–1110MBq). The reaction was incubated in a block heater for 15 min at 92 °C. The radiochemical purity was 98% as determined by radio-HPLC (Discovery C18; 5 μm particle size; L × I.D. 25 cm × 4.6 mm; linear gradient: 0.1% TFA/water (A) and 0.1% TFA/acetonitrile (B) flow rate of 1 mL/min. A-100% for 3 min, changed to A-50% over 10 min and maintained for 10 min, changed A-30% over 3 min and returned to A-100% over 4 min).
ITLC-SG (instant thin layer chromatography-silica gel) was also carried out for the assessment of ^99mTc-iFAP radiochemical purity. Three mobile phases were used, the 2-butanone phase was employed for the identification of free ^99mTcO4^− (Rf = 1), where ^99mTc-iFAP, ^99mTc-EDDA/tricine and ^99mTc-colloid remained in the origin (Rf = 0); 0.1 M sodium citrate (pH 5) identified free ^99mTcO4 (Rf = 1) and ^99mTc-EDDA/tricine coligands (Rf = 1), where ^99mTc-iFAP and ^99mTc-colloid remained in the origin (Rf = 0); finally, the third phase was used for the determination of ^99mTc-colloid (Rf = 0) and consisted of ammonium acetate-methanol (1:1 v/v) ( ^99mTcO4^−, ^99mTc-iFAP and ^99mTc-EDDA run with the solvent front; Rf = 1).

C[C@@H](NC(=O)c1ccc(NN)nc1)C(=O)N1CCC[C@H]1B(O)O [iFAP, ((R)-1-((6-hydrazinylnicotinoyl)-D-alanyl)pyrrolidin-2-yl) boronic acid]
adverse effects [1]: did not show adverse effects

^99mTc-((R)-1-((6-hydrazinylnicotinoyl)-D-alanyl) pyrrolidin-2-yl) boronic acid [^99mTc-iFAP]
Biodistribution, Blood ([2]; 15 min): 2.07 ± 0.63 %ID/g | Biodistribution, Blood ([2]; 30 min): 1.02 ± 0.32 %ID/g | Biodistribution, Blood ([2]; 2 h): 0.33 ± 0.05 %ID/g | Biodistribution, Blood ([2]; 24 h): 0.01 ± 0.01 %ID/g | Biodistribution, Bone ([2]; 15 min): 0.20 ± 0.09 %ID/g | Biodistribution, Bone ([2]; 30 min): 0.14 ± 0.06 %ID/g | Biodistribution, Bone ([2]; 2 h): 0.13 ± 0.02 %ID/g | Biodistribution, Heart ([2]; 15 min): 1.75 ± 0.08 %ID/g | Biodistribution, Heart ([2]; 30 min): 0.88 ± 0.23 %ID/g | Biodistribution, Heart ([2]; 2 h): 0.19 ± 0.03 %ID/g | Biodistribution, Tumor ([2]; Hep-G2 tumor, 15 min): 9.87 ± 1.94 %ID/g | Biodistribution, Tumor ([2]; Hep-G2 tumor, 30 min): 7.05 ± 1.13 %ID/g | Biodistribution, Tumor ([2]; Hep-G2 tumor, 2 h): 5.18 ± 0.82 %ID/g | Biodistribution, Tumor ([2]; Hep-G2 tumor, 24 h): 2.37 ± 0.26 %ID/g | tumor fast elimination constant (λeff) ([2]; Hep-G2 tumor, biokinetic model): 0.41 h⁻¹ | tumor slow elimination constant (λeff) ([2]; Hep-G2 tumor, biokinetic model): 0.12 h⁻¹ | Biodistribution, Intestine ([2]; 15 min): 1.42 ± 0.74 %ID/g | Biodistribution, Intestine ([2]; 30 min): 0.93 ± 0.14 %ID/g | Biodistribution, Intestine ([2]; 2 h): 0.22 ± 0.10 %ID/g | Biodistribution, Kidneys ([2]; 15 min): 13.85 ± 2.27 %ID/g | Biodistribution, Kidneys ([2]; 30 min): 11.18 ± 1.54 %ID/g | Biodistribution, Kidneys ([2]; 2 h): 7.46 ± 1.02 %ID/g | Biodistribution, Kidneys ([2]; 24 h): 1.89 ± 0.53 %ID/g | Biodistribution, Liver ([2]; 15 min): 2.78 ± 0.42 %ID/g | Biodistribution, Liver ([2]; 30 min): 2.14 ± 0.51 %ID/g | Biodistribution, Liver ([2]; 2 h): 1.05 ± 0.29 %ID/g | Biodistribution, Liver ([2]; 24 h): 0.05 ± 0.03 %ID/g | Biodistribution, Lung ([2]; 15 min): 1.11 ± 0.51 %ID/g | Biodistribution, Lung ([2]; 30 min): 0.65 ± 0.19 %ID/g | Biodistribution, Lung ([2]; 2 h): 0.02 ± 0.01 %ID/g | Biodistribution, Muscle (left thigh) ([2]; 15 min): 0.39 ± 0.15 %ID/g | Biodistribution, Muscle (left thigh) ([2]; 30 min): 0.31 ± 0.11 %ID/g | Biodistribution, Muscle (left thigh) ([2]; 2 h): 0.18 ± 0.06 %ID/g | Biodistribution, Pancreas ([2]; 15 min): 0.64 ± 0.10 %ID/g | Biodistribution, Pancreas ([2]; 30 min): 0.31 ± 0.12 %ID/g | Biodistribution, Pancreas ([2]; 2 h): 0.12 ± 0.04 %ID/g | Biodistribution, Spleen ([2]; 15 min): 1.07 ± 0.17 %ID/g | Biodistribution, Spleen ([2]; 30 min): 0.82 ± 0.04 %ID/g | Biodistribution, Spleen ([2]; 2 h): 0.15 ± 0.05 %ID/g | Biodistribution, Stomach ([2]; 15 min): 0.71 ± 0.08 %ID/g | Biodistribution, Stomach ([2]; 30 min): 0.39 ± 0.12 %ID/g | Biodistribution, Stomach ([2]; 2 h): 0.25 ± 0.03 %ID/g | fraction of radiotracer eliminated from blood, fast phase ([2]; blood, biokinetic model, fast): 88.6% | fraction of radiotracer eliminated from blood, slow phase ([2]; blood, biokinetic model, slow): 11.4% | blood half-life (slow) ([2]; blood, t1/2 = ln2/0.27): 154 min | blood half-life (fast) ([2]; blood, t1/2 = ln2/2.93): 14.4 min | kidney half-life, second phase ([2]; kidneys, t1/2 = ln2/1.54): 27 min | kidney half-life (fast) ([2]; kidneys, t1/2 = ln2/2.71): 15.6 min | fraction of activity eliminated from kidneys, fast phase ([2]; kidneys, triexponential model, fast): 49.4% | fraction of activity eliminated from kidneys, second phase ([2]; kidneys, triexponential model, second phase): 6.3% | fraction of activity eliminated from kidneys, slow phase ([2]; kidneys, triexponential model, slow): 44.3% | stability in fresh human serum ([3]; 30 min, 3 h and 24 h, 37 °C): remained stable | 99mTc-colloid as activity retained in the column ([3]; from percentage of recovered activity, size-exclusion HPLC): 0.2% | transchelation of 99mTc to cysteine ([3]; human serum, 37 °C): does not occur | serum protein binding ([3]; human serum, 37 °C, 30 min): 0.3 ± 0.1% | serum protein binding ([3]; human serum, 37 °C, 3 h): 0.9 ± 0.2% | radiochemical stability in human serum ([3]; human serum, 37 °C, 24 h): > 95% | serum protein binding ([3]; human serum, 37 °C, 24 h): 2.1 ± 0.3% | tumor SUVmax, the mouse shown in Figure 7 ([4]; 30 min): 5.6 | tumor SUVmax ([4]; 30 min after administration): 5.0 ± 1.2 | tumor SUVmax, the mouse shown in Figure 7 ([4]; 24 h): 2.4 | tumor SUVmax ([4]; 24 h after administration): 2.7 ± 0.6 | radiotracer uptake in left thigh with inflammation induced by killed bacteria (negative control) ([4]; micro-SPECT/CT, left thigh): no radiotracer uptake was observed | internalization rate in N30 cells [5]: rather low | cellular uptake in N30 compared to fibroblasts ([5]; human fibroblasts FAP negative control, p < 0.05, n = 6): increased | sensitivity to detect the tumor microenvironment [6]: high sensitivity | radiochemical purity after 24 h of labeling [7]: greater than 97%
